Experimental findings from ChEMBL document CHEMBL1201862, “PubChem BioAssay data set” (2004) are described below.

Activity calls are given as the source filed them.

What all share (assay type): functional
The subject of assay [1] is SN12K1. Put plainly: cells. The following applies: Homo sapiens.
Assay [2] deals with P388. Put plainly: cells. Conditions: Mus musculus.
The nature of assay [3]: growth suppression of PTEN-null colon cells, dose response, cell-based, HCT116 PTEN knockout (AID 1047).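 Further: HCT116 colon tumor cells with PTEN knocked out; cells exposed to compound for 60 hours before readout; potency for loss of cell viability measured by luminescence.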
Assay [4] can be described thus: growth suppression of beta-catenin-knockout colon cells, dose response, cell-based, HCT116, human colon tumor (AID 1045).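 Further: HCT116 colon tumor cells with beta catenin knocked out; cells exposed to compound for 60 hours.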
The test system of assay [5] is P388/ADR. Put plainly: cells. Conditions: Mus musculus.
The target of assay [6] is T1, Protein RecA (Mycobacterium tuberculosis, UniProt P9WHJ3).
T1 sequence (P9WHJ3 whole entry): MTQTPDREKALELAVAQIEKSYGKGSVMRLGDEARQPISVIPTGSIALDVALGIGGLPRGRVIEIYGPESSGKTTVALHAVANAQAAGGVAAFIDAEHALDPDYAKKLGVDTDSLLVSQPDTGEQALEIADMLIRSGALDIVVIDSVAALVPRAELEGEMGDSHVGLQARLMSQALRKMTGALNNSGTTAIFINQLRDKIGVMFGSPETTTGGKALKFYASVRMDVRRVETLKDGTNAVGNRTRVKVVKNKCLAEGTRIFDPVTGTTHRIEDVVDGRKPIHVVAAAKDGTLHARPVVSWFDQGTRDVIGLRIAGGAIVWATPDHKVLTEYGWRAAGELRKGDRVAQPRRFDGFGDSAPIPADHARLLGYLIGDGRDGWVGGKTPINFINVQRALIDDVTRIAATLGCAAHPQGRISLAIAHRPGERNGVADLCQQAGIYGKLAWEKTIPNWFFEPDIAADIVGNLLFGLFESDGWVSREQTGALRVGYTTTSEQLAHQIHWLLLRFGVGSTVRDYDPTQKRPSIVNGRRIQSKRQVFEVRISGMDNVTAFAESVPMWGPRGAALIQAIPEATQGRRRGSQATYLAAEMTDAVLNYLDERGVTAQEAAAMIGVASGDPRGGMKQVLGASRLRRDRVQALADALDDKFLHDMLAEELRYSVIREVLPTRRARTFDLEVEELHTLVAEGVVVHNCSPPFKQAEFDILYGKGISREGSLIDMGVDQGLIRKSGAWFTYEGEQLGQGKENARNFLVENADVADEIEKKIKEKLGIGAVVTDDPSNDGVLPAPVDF
Kind of assay: Fluorescence Cell-Free Homogeneous Dose Retest to Identify Inhibitors of RecA-Intein Splicing Activity. [Related pubchem assays (depositor defined):AID2097, AID2223, AID489010, AID492950].

The target in assay [7] is T2, Replicative DNA helicase DnaB (Mycobacterium tuberculosis, UniProt P9WMR3).
T2 sequence (P9WMR3 whole entry): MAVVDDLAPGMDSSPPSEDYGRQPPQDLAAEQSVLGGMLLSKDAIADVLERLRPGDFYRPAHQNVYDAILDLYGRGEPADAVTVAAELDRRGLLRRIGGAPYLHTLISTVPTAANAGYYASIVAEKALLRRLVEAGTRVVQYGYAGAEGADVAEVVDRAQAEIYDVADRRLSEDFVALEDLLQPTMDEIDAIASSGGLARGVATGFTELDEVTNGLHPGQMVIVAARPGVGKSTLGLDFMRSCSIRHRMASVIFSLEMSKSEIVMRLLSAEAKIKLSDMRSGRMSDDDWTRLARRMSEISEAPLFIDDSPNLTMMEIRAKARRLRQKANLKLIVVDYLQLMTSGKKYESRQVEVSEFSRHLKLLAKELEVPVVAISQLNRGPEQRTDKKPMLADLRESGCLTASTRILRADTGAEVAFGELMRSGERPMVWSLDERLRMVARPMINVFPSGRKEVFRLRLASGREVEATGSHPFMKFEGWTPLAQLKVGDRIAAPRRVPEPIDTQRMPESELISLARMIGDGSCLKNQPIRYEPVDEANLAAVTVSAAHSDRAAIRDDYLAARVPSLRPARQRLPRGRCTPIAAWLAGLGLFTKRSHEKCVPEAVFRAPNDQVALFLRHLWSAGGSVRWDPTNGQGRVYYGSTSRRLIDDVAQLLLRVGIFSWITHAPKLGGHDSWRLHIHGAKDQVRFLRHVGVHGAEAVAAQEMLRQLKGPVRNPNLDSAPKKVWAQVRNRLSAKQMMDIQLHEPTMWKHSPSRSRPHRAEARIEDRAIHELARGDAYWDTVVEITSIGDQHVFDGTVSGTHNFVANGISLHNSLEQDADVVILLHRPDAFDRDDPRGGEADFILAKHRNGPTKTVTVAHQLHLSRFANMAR
Put plainly: DnaB intein splicing inhibitors, dose response, biochemical, cell-free fluorescence (AID 449749).

Turning to `O=c1ccn([C@@H]2C=C(CO)[C@@H](O)[C@H]2O)c(=O)[nH]1`, the GI50 in assay [1] and in assay [2] was > 625 µM (inactive) throughout.

For the molecule `O=C1/C(=C/c2c[nH]c3ccccc23)CCC/C1=C\c1c[nH]c2ccccc12`, the EC50 in assay [3] is 14.4 µM (active); in assay [4], 16.8 µM (active).

With `CCOc1ccc(CCNc2ccc3nnc(-c4ccccc4)n3n2)cc1OCC`, the EC50 in assay [3] was 12.7 µM (active); in assay [4], 26.3 µM (active).

In the case of `COc1cccc2c1C(=O)c1c(O)c3c(c(O)c1C2=O)C[C@@](O)(C(=O)CN1CCOCC1)C[C@@H]3OC1CC(N)C(O)C(C)O1` (stereo partly drawn), the GI50 in assay [1] is 0.649 µM (active); in assay [2], 0.361 µM (active); in assay [5], 14.7 µM (inactive).

Consider `CCCN1C(=O)/C(=C(/O)C(=O)OCC)C(c2ccc(OC)c(OC)c2)C1=O` (stereo not drawn), for which the GI50 in assay [1], in assay [2] and in assay [5] was > 100 µM (inactive) in each case.

As to `COc1cc([C@@H]2c3cc4c(c(O)c3C[C@H]3COC(=O)[C@@H]32)OCO4)cc(OC)c1O`, the results for the GI50 in assay [1], in assay [2] and in assay [5] were 0.0208 µM (active), 0.0261 µM (active) and 0.02 µM (active), respectively.

Regarding `COc1ccc(C2COc3cc(OC(C)=O)c(OC(C)=O)cc3C2)cc1` (stereo not drawn), the GI50 was 13.9 µM (inactive) in assay [1], 3.08 µM (inactive) in assay [2] and 2.87 µM (inactive) in assay [5].

Consider `CCN(CC)CCCC(C)Nc1c2ccc(Cl)cc2nc2cc(Cl)ccc12` (stereo not drawn), for which the GI50 is 2.81 µM (inactive) in assay [1], 1.87 µM (inactive) in assay [2] and 1.71 µM (inactive) in assay [5].

As to `CCCCCC/C=C1\CCC(CN(C)C)C1=O` (stereo not drawn), the GI50 was 2.17 µM (inactive) in assay [1], 1.08 µM (active) in assay [2] and 0.673 µM (active) in assay [5].

`Nc1ccc2cn[nH]c2c1`: in assay [6], the concentration giving a half-maximal response (EC50) is 9.02 µM (active). In assay [7], the AC50 was 4.45 µM (active).

Regarding `CC(=O)Nc1cccc(OC(=O)COc2ccc(Br)cc2)c1`, the EC50 in assay [6] was 20.6 µM (active). Besides, the concentration at half-maximal activity (AC50) in assay [7] is 11 µM (active).

Consider `CCCCN(C)/N=N/c1[nH]cnc1C(N)=O`, for which the GI50 in assay [1] is 81.7 µM (inactive); in assay [2], 63.8 µM (inactive); in assay [5] it was > 100 µM (inactive).

Turning to `CCOC(=O)CN(CC)C(=O)NC12CC3CC(CC(C3)C1)C2`, the GI50 in assay [1] was 188 µM (inactive); in assay [2] it was 175 µM (inactive); in assay [5] it was 120 µM (inactive).

With `CC1=NCCc2cc3[nH]c4ccccc4c3cc21`, the figures for the GI50 in assay [1], in assay [2] and in assay [5] were 14.6 µM (inactive), 6.73 µM (inactive) and 9.04 µM (inactive), respectively.

As to `Nc1ccc2[nH]ncc2c1`, the EC50 in assay [6] was 36.1 µM (active). Besides, in assay [7], the AC50 was 324 µM (active).

Turning to `CCOC(=O)N1CCC2(CC1)C(C#N)=C(N)Oc1[nH]nc(C)c12`, the EC50 in assay [6] is 1.43 µM (active). The AC50 in assay [7] was 8.2 µM (active).

In the case of `C=C1C(=O)[C@@]23CC[C@H]4[C@@](C)(CCC[C@@]4(C)C(=O)OC)[C@@H]2CC[C@]1(O)C3`, the GI50 in assay [1] was 1.45 µM (inactive); in assay [2] it was 0.153 µM (active); in assay [5], 0.0483 µM (active).

As for `C/C=C1\C[C@@H]2C(OC)Nc3cc(O)c(OC)cc3C(=O)N2C1` (stereo partly drawn), the GI50 in assay [1], in assay [2] and in assay [5] was 0.01 µM (active) throughout.

Regarding `Nc1nccc2c1ncn2C1C=C(CO)C(O)C1O` (stereo not drawn), the GI50 in assay [1] was 0.811 µM (active); in assay [2], 0.0982 µM (active); in assay [5], 0.051 µM (active).

As for `O=C1C2=C(C3=NCCc4c[nH]c1c43)c1c(cc(Br)c(O)c1Br)CCN2`, the GI50 in assay [1] was 6.97 µM (inactive); in assay [2], 3.37 µM (inactive); in assay [5], 10.2 µM (inactive).

The term GI50 denotes the concentration at which growth is held to half of that of the control. Usually EC50 stands for the concentration that produces a half-maximal response. Usually AC50 stands for the concentration at which the activity in the assay is half-maximal.
